These results are taken from paper PMC6332334, “3-H-[1,2]Dithiole as a New Anti-Trypanosoma cruzi Chemotype: Biological and Mechanism of Action Studies” (Molecules, 2015).

For assay [1], the system named is epimastigotes of T. cruzi (Tulahuen 2 strain). Put plainly: Anti-T. cruzi test in vitro (epimastigote growth inhibition). Type of assay: cell-based, Trypanosoma cruzi. On the procedure: To evaluate the anti-trypanosomal activity of the synthesized 3H-[1,2]dithioles we used T. cruzi, Tulahuen 2 strain (discrete typing unit, DTU, TcVI [18]) in the epimastigote form. […] To establish the selectivity of the compounds against the parasite, unspecific cytotoxicity against mammalian cells (J774.1 murine macrophages) was studied for the most relevant derivatives. The selectivity indexes (SI) were also determined (Table 1).
We used epimastigotes of the Tulahuen 2 strain (DTU, Tc VI) growing in an axenic milieu (BHI-Tryptose). Cells from a 5–7-day-old culture were inoculated in fresh culture milieu to give an initial concentration of 1 × 10^6 cells/mL. The absorbance at 600 nm of the cells in culture was measured every day. At day 5, the milieu was inoculated with different quantities of the compounds from a stock solution in DMSO (DMSO concentration in the culture milieu never exceeded 0.4%). The control was made in the presence of 0.4% DMSO and in the absence of compounds. […] At day 5, the absorbance of the culture was measured and related to the control. The IC50 value was taken as the concentration of drug needed to reduce the absorbance ratio to 50%.

For assay [2], the target named is T1, Trypanosoma cruzi triosephosphate isomerase (TcTIM) (Trypanosoma cruzi, UniProt P52270).
T1 construct: made in house; host or cells: Escherichia coli
Put plainly: Inhibition of enzymatic activity of TcTIM. Type of assay: biochemical. On the procedure: In order to investigate if the 3H-[1,2]dithioles inhibit TcTIM, we initially tested the inhibitory capacity of the compounds at a concentration of 200 μM and then at 25 μM.
Expression and purification of protein: TcTIM was expressed in Escherichia coli and purified as described in the literature. After purification, the enzyme, dissolved in 100 mM triethanolamine, 10 mM EDTA and 1 mM dithiothreitol (pH 8), was precipitated with ammonium sulfate (75% saturation) and stored at 4 °C. Before use, extensive dialysis against 100 mM triethanolamine/10 mM EDTA (pH 7.4) was performed. Protein concentration was determined by absorbance at 280 nm (ε = 36,440 M^−1·cm^−1).
Enzymatic activity assays. Enzymatic activity was determined following the conversion of glyceraldehyde 3-phosphate into dihydroxyacetone phosphate. The decrease in absorbance at 340 nm was followed in a multicell Cary spectrophotometer at 25 °C. The reaction mixture (1 mL, pH 7.4) contained 100 mM triethanolamine, 10 mM EDTA, 0.2 mM NADH, 1 mM glyceraldehyde 3-phosphate, and 0.9 units of α-glycerol phosphate dehydrogenase. The reaction was initiated by addition of 5 ng/mL of the TcTIM.
For inactivation studies, TcTIM was incubated at a concentration of 5 mg/mL in a buffer containing 100 mM triethanolamine, 10 mM EDTA, pH 7.4 and 10% of DMSO at 36 °C. The mixture also contained the compounds at the indicated concentrations. Compounds were dissolved in DMSO. After 2 h, […] was withdrawn and added to 1 mL of reaction mixture for the activity assay. None of the molecules tested here affected the activity of α-glycerol phosphate dehydrogenase, the enzyme used for trapping the product.
The IC50 value was taken as the concentration of drug needed to reduce the enzymatic activity to 50%. The experiments were performed in triplicate.

In assay [3] the test system is T. cruzi cells (Y strain, DTU Tc II). Description: 1H-NMR study of the excreted metabolites. Type of assay: cell-based, Trypanosoma cruzi. On the procedure:
To gain insight into the changes promoted by the active 3-propylidene[1,2]dithioles 2 and 14 in some biochemical pathways, the metabolites excreted by the parasite using ^1H-NMR spectroscopy were analyzed. Changes in the excreted metabolites by T. cruzi Y strain (DTU Tc II, [24]), when the parasite cells were exposed to a bioactive compound, could be indicative of the modification of the biochemical pathway(s) by the agents. Spectra of the cell-free milieu of treated parasites were compared with those of the untreated T. cruzi-free milieu as the control. We focused mainly on the changes of excreted salts of the carboxylic acids, lactate (Lac), acetate (Ace), pyruvate (Pyr), and succinate (Succ) and the amino acids, alanine (Ala) and glycine (Gly), among the most relevant modified metabolites.
For the ^1H-NMR spectroscopic studies, T. cruzi cells (Y strain, DTU Tc II) treated for 2 days, with each studied compound at concentrations corresponding to 2 × IC50 values (5 mL) were centrifuged at 1500× g for 10 min at 4 °C. The pellet was discarded, and the parasite-free supernatant was stored at −20 °C until use. Before measuring, DMF (0.1 mL, 10 mM) as the internal standard and D2O (0.1 mL) were added to the supernatant (0.3 mL). ^1H-NMR experiments were recorded at 20 °C on a Bruker Advance DPX-400 spectrometer (Bruker), operating at 400.132 MHz, with a 5 mm broadband inverse geometry probe. The acquisition parameters included: 90° pulse (zgpr, advance-version v 1.7.10.2, 1D sequence with f1 presaturation), 128 scans, and spectral width of 14.983 ppm. The acquisition time was 1.3664 s. Signal intensities were calculated by performing appropriate baseline corrections and then integrating the area under each of the resonances using MestRe-C NMR software. Spectra were analyzed using the Topspin 1.3 software package. The spectra were registered with water suppression in 5 mm NMR (Aldrich, St. Louis, MO, USA) sample tubes. The chemical displacements used to identify the respective metabolites were previously confirmed by adding each analyzed metabolite to the studied supernatant, as well as by the study of a control solution with 4 μg/mL of each metabolite in buffer (phosphate, pH = 7.4). Each run was done at least in triplicate and the Student t test was used to analyze the significance of the changes. […]

Where [4] appears, read: IC50 × 2, 2 days, DMF internal standard.

SMILES strings stand for the structures. Marks after values point to notes of the source that are not given here.

T1 sequence (P52270 whole entry): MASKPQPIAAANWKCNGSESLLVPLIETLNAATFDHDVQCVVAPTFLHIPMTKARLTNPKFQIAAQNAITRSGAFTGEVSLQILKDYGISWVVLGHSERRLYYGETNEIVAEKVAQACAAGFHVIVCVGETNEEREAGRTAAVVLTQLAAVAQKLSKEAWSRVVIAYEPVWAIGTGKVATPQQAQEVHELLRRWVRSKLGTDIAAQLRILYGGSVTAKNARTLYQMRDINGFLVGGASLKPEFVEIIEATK

For the compound `CC(=O)COc1ccc(C2=C/C(=C(\SCC(C)=O)C(C)=O)SS2)cc1` [Derivative 2], the half-inhibitory concentration (IC50) in assay [1] (Trypanosoma cruzi, epimastigotes, Tulahuen 2 strain, triplicate, read-out: IC50 against T. cruzi) stood at 7.7 ± 1.4 µM. The “SI (selectivity index)” value in assay [1] (macrophages (J774.1) vs T. cruzi epimastigotes) is given as 3.1. Further, in assay [2] (percentage of enzymatic inhibition at 25 μM, read-out: TcTIM % Inhib25), the inhibition at 25 µM amounted to 48 ± 4%. In addition, in assay [2] (percentage of enzymatic inhibition at 200 μM, read-out: TcTIM % Inhib200), the inhibition at 200 µM came to 72%. Besides, in assay [3] (setting [4]), the “Concentration of excreted Ace” value came to 23.28 ± 0.86, the “Concentration of excreted Ala” value stood at 17.76 ± 0.61, the “Concentration of excreted Gly” value was 2.11 ± 0.11 ^c and the “Concentration of excreted Lac” value is recorded as 8.73 ± 0.37. For the same compound, in assay [3] (setting [4]), the “Concentration of excreted Pyr” value was 8.00 ± 0.35 and the “Concentration of excreted Succ” value is 5.83 ± 0.24. The “Change of excreted metabolites compared to the control” value in assay [3] (IC50 × 2, p < 0.05 Student's t-test) was “significantly decreased the levels of excreted Gly and Pyr”.

By IC50 is commonly meant the concentration at which inhibition is half-maximal.
